According to US6914045B2, “Glycopeptide antibiotics” (Wyeth Holdings Corporation, priority 2001, dated 2005):
≈ marks a conversion by molar mass, not a printed value.

Columns and labels:
Assay in all cases: in vitro antibacterial evaluation, MIC by broth dilution
Type in all cases: cell-based
Enterococcus sp. = conditions: broth dilution, 18 hours at 35° C.
How it was run: (§1)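 Test organisms, which included recent clinical isolates resistant to methicillin, penicillin and/or vancomycin, were inoculated at 5×10^5 CFU/mL into Muller-Hinton II […] containing antibiotic at 64-0.06 μg/mL. Minimum inhibitory concentrations were then read as the lowest level inhibiting growth.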

Escherichia coli = conditions: 18 hours at 35° C.
How it was run: as §1

Staphylococcus sp. = conditions: broth dilution, 18 hours at 35° C.
How it was run: as §1

Streptococcus sp. = conditions: broth dilution, 18 hours at 35° C.
How it was run: as §1

MIC Enterococcus avium (GC 4558) (Enterococcus sp.; Enterococcus avium (GC 4558)): 16 µg/mL (≈ 9.69 µM)
MIC Enterococcus faecalis (ATCC 29212) (Enterococcus sp.; Enterococcus faecalis (ATCC 29212)): 32 µg/mL (≈ 19.4 µM)
MIC Enterococcus faecalis (GC 2242) (Enterococcus sp.; Enterococcus faecalis (GC 2242)): 32 µg/mL (≈ 19.4 µM)
MIC Enterococcus faecalis (GC 2691) (Enterococcus sp.; Enterococcus faecalis (GC 2691)): 32 µg/mL (≈ 19.4 µM)
MIC Enterococcus faecalis (GC 3059) (Enterococcus sp.; Enterococcus faecalis (GC 3059)): 64 µg/mL (≈ 38.7 µM)
MIC Enterococcus faecalis (GC 4552) (Enterococcus sp.; Enterococcus faecalis (GC 4552)): 32 µg/mL (≈ 19.4 µM)
MIC Enterococcus faecalis (GC 4553) (Enterococcus sp.; Enterococcus faecalis (GC 4553)): 8 µg/mL (≈ 4.84 µM)
MIC Enterococcus faecalis (GC 4554) (Enterococcus sp.; Enterococcus faecalis (GC 4554)): 32 µg/mL (≈ 19.4 µM)
MIC Enterococcus faecalis (GC 6189) (Enterococcus sp.; Enterococcus faecalis (GC 6189)): 32 µg/mL (≈ 19.4 µM)
MIC Enterococcus faecium (GC 2243) (Enterococcus sp.; Enterococcus faecium (GC 2243)): 8 µg/mL (≈ 4.84 µM)
MIC Enterococcus faecium (GC 4556) (Enterococcus sp.; Enterococcus faecium (GC 4556)): 64 µg/mL (≈ 38.7 µM)
MIC Enterococcus faecium (GC 4557) (Enterococcus sp.; Enterococcus faecium (GC 4557)): 32 µg/mL (≈ 19.4 µM)
MIC Enterococcus faecalis (ATCC 29212) (Enterococcus sp.; strain ATCC 29212): 32 µg/mL (≈ 19.4 µM)
MIC Enterococcus faecalis (GC 2242) (Enterococcus sp.; strain GC 2242): 32 µg/mL (≈ 19.4 µM)
MIC Enterococcus faecium (GC 2243) (Enterococcus sp.; strain GC 2243): 8 µg/mL (≈ 4.84 µM)
MIC Enterococcus faecalis (GC 2691) (Enterococcus sp.; strain GC 2691): 32 µg/mL (≈ 19.4 µM)
MIC Enterococcus faecalis (GC 3059) (Enterococcus sp.; strain GC 3059): 64 µg/mL (≈ 38.7 µM)
MIC Enterococcus faecalis (GC 4552) (Enterococcus sp.; strain GC 4552): 32 µg/mL (≈ 19.4 µM)
MIC Enterococcus faecalis (GC 4553) (Enterococcus sp.; strain GC 4553): 8 µg/mL (≈ 4.84 µM)
MIC Enterococcus faecalis (GC 4554) (Enterococcus sp.; strain GC 4554): 32 µg/mL (≈ 19.4 µM)
MIC Enterococcus faecium (GC 4556) (Enterococcus sp.; strain GC 4556): 64 µg/mL (≈ 38.7 µM)
MIC Enterococcus faecium (GC 4557) (Enterococcus sp.; strain GC 4557): 32 µg/mL (≈ 19.4 µM)
MIC Enterococcus avium (GC 4558) (Enterococcus sp.; strain GC 4558): 16 µg/mL (≈ 9.69 µM)
MIC Enterococcus faecalis (GC 6189) (Enterococcus sp.; strain GC 6189): 32 µg/mL (≈ 19.4 µM)
MIC Escherichia coli (ATCC 25922) (Escherichia coli; strain ATCC 25922): >64 µg/mL
MIC Escherichia coli (GC 4559) (Escherichia coli; strain GC 4559): >64 µg/mL
MIC Escherichia coli (GC 4560) (Escherichia coli; strain GC 4560): 64 µg/mL (≈ 38.7 µM)
MIC Staphylococcus aureus (ATCC 29213) (Staphylococcus sp.): 32 µg/mL (≈ 19.4 µM)
MIC Staphylococcus aureus (GC 1131) (Staphylococcus sp.): 32 µg/mL (≈ 19.4 µM)
MIC Staphylococcus aureus (GC 3051) (Staphylococcus sp.): 32 µg/mL (≈ 19.4 µM)
MIC Staphylococcus aureus (GC 3053) (Staphylococcus sp.): 32 µg/mL (≈ 19.4 µM)
MIC Staphylococcus aureus (GC 4541) (Staphylococcus sp.): 32 µg/mL (≈ 19.4 µM)
MIC Staphylococcus aureus (GC 4542) (Staphylococcus sp.): 32 µg/mL (≈ 19.4 µM)
MIC Staphylococcus aureus (GC 4544) (Staphylococcus sp.): 32 µg/mL (≈ 19.4 µM)
MIC Staphylococcus aureus (GC 4545) (Staphylococcus sp.): 32 µg/mL (≈ 19.4 µM)
MIC Staphylococcus aureus (GC 1131) (Staphylococcus sp.; inoculum 5×10^5 CFU/mL, strain GC 1131): 32 µg/mL (≈ 19.4 µM)
MIC Staphylococcus aureus (ATCC 29213) (Staphylococcus sp.; strain ATCC 29213): 32 µg/mL (≈ 19.4 µM)
MIC Staphylococcus aureus (GC 3051) (Staphylococcus sp.; strain GC 3051): 32 µg/mL (≈ 19.4 µM)
MIC Staphylococcus aureus (GC 3053) (Staphylococcus sp.; strain GC 3053): 32 µg/mL (≈ 19.4 µM)
MIC Staphylococcus aureus (GC 4541) (Staphylococcus sp.; strain GC 4541): 32 µg/mL (≈ 19.4 µM)
MIC Staphylococcus aureus (GC 4542) (Staphylococcus sp.; strain GC 4542): 32 µg/mL (≈ 19.4 µM)
MIC Staphylococcus aureus-SMITH (GC 4543) (Staphylococcus sp.; strain GC 4543): 32 µg/mL (≈ 19.4 µM)
MIC Staphylococcus aureus (GC 4544) (Staphylococcus sp.; strain GC 4544): 32 µg/mL (≈ 19.4 µM)
MIC Staphylococcus aureus (GC 4545) (Staphylococcus sp.; strain GC 4545): 32 µg/mL (≈ 19.4 µM)
MIC Coagulase Negative Staphylococcus (GC 4547) (Staphylococcus sp.; strain GC 4547): 32 µg/mL (≈ 19.4 µM)
MIC Coagulase Negative Staphylococcus (GC 4548) (Staphylococcus sp.; strain GC 4548): 32 µg/mL (≈ 19.4 µM)
MIC Coagulase Negative Staphylococcus (GC 4549) (Staphylococcus sp.; strain GC 4549): 16 µg/mL (≈ 9.69 µM)
MIC Coagulase Negative Staphylococcus (GC 4551) (Staphylococcus sp.; strain GC 4551): 32 µg/mL (≈ 19.4 µM)
MIC Coagulase Negative Staphylococcus (GC 6257) (Staphylococcus sp.; strain GC 6257): 32 µg/mL (≈ 19.4 µM)
MIC Staphylococcus aureus-SMITH (GC 4543) (Staphylococcus sp.; strain SMITH GC 4543): 32 µg/mL (≈ 19.4 µM)
MIC Streptococcus agalactiae (GC 4564) (Streptococcus sp.; Streptococcus agalactiae (GC 4564)): 8 µg/mL (≈ 4.84 µM)
MIC Streptococcus pneumoniae (ATCC 6301) (Streptococcus sp.; Streptococcus pneumoniae (ATCC 6301)): 8 µg/mL (≈ 4.84 µM)
MIC Streptococcus pneumoniae (GC 1894) (Streptococcus sp.; Streptococcus pneumoniae (GC 1894)): 1 µg/mL (≈ 0.605 µM)
MIC Streptococcus pneumoniae (GC 4565) (Streptococcus sp.; Streptococcus pneumoniae (GC 4565)): 4 µg/mL (≈ 2.42 µM)
MIC Streptococcus pyogenes (GC 4563) (Streptococcus sp.; Streptococcus pyogenes (GC 4563)): 16 µg/mL (≈ 9.69 µM)
MIC Streptococcus pneumoniae (ATCC 6301) (Streptococcus sp.; strain ATCC 6301): 8 µg/mL (≈ 4.84 µM)
MIC Streptococcus pneumoniae (GC 1894) (Streptococcus sp.; strain GC 1894): 1 µg/mL (≈ 0.605 µM)
MIC Streptococcus pyogenes (GC 4563) (Streptococcus sp.; strain GC 4563): 16 µg/mL (≈ 9.69 µM)
MIC Streptococcus agalactiae (GC 4564) (Streptococcus sp.; strain GC 4564): 8 µg/mL (≈ 4.84 µM)
MIC Streptococcus pneumoniae (GC 4565) (Streptococcus sp.; strain GC 4565): 4 µg/mL (≈ 2.42 µM)
Structure (SMILES): COC1CCC2(C)C(CCC3C2CCC2(C)C(C(C)CCC4OCC5OC(OC6C(CO)OC(Oc7ccc(CC8NC(=O)C(C(C)c9ccccc9)NC(=O)CNC(=O)C(CO)NC(=O)C(C(O)C9CNC(=N)N9C9OC(CO)C(O)C(O)C9O)NC(=O)C(C(O)C9CNC(=N)N9)NC8=O)cc7)C(O)C6O)C(O)C(O)C5O4)CCC32)C1 (stereo not shown) [Example 130]
MIC Staphylococcus haemolyticus (GC 4546) (Staphylococcus sp.; strain GC 4546): 32 µg/mL (≈ 19.4 µM)
